What was measured:
Assay type in all cases: in vivo
[1] = system: ABUTH (Abutilon theophrasti); assay: greenhouse post-emergence herbicidal test
Outline: (§1)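 Post-emergence greenhouse test on plants grown to 3–15 cm in loamy sand (~3.0% humus), sprayed with active ingredient suspended or emulsified in water. Plants held at 10-25 °C or 20-35 °C by species for 2 to 4 weeks, then damage scored visually 0–100 (100 = complete destruction of aerial parts, 0 = no damage).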

[2] = system: STEME (Stellaria media); assay: greenhouse post-emergence herbicidal test
Outline: as §1

[3] = system: GERDI (Geranium dissectum); assay: greenhouse post-emergence herbicidal test
Outline: as §1

[4] = system: POLCO (Polygonum convolvulus); assay: greenhouse post-emergence herbicidal test; details: 0.062 kg/ha
Outline: as §1

[5] = system: CAPBP (Capsella bursa-pastoris); assay: greenhouse pre-emergence herbicidal test
Outline: (§2)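 Greenhouse pots held at 10-25° C. or 20-35° C., species-dependent, after spraying compounds in water directly following sowing. Germination was promoted under transparent hoods, and the 0-100 rating reflects emergence failure or aerial destruction over 2 to 4 weeks.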

[6] = system: LAMPU (Lamium purpureum); assay: greenhouse pre-emergence herbicidal test
Outline: as §2

[7] = system: STEME (Stellaria media); assay: greenhouse pre-emergence herbicidal test
Outline: as §2

[8] = system: ECHCG (Echinocloa crus-galli); assay: greenhouse pre-emergence herbicidal test
Outline: as §2

[9] = system: POLCO (Polygonum convolvulus); assay: greenhouse pre-emergence herbicidal test
Outline: as §2

[10] = system: APESV (Apera spica-venti); assay: greenhouse pre-emergence herbicidal test
Outline: as §2

[11] = system: CHEAL (Chenopodium album); assay: greenhouse post-emergence herbicidal test; details: 0.125 kg/ha
Outline: as §1

[12] = system: AMARE (Amaranthus retroflexus); assay: greenhouse post-emergence herbicidal test
Outline: as §1

[13] = system: SETVI (Setaria viridis); assay: greenhouse post-emergence herbicidal test; details: 62 g/ha
Outline: as §1

[14] = system: VIOAR (Viola arvensis); assay: greenhouse pre-emergence herbicidal test
Outline: as §2

[15] = system: SETVI (Setaria viridis); assay: greenhouse pre-emergence herbicidal test
Outline: as §2

[16] = system: AMARE (Amaranthus retroflexus); assay: greenhouse pre-emergence herbicidal test; details: 1000 g/ha
Source text: The seeds of the test plants were sown separately for each species. For the pre-emergence treatment, the active ingredients, which had been suspended or emulsified in water, were applied directly after sowing by means of finely distributing nozzles. The containers were irrigated gently to promote germination and growth and subsequently covered with transparent plastic hoods until the plants had rooted. This cover caused uniform germination of the test plants, unless this had been impaired by the active ingredients. Depending on the species, the plants were kept at 10-25° C. or 20-35° C., respectively. The test period extended over 2 to 4 weeks. During this time, the plants were tended, and their response to the individual treatments was evaluated. […] A moderate herbicidal activity is given at values of at least 60, a good herbicidal activity is given at values of at least 70, and a very good herbicidal activity is given at values of at least 85. The plants used in the greenhouse experiments were of the following species: [table]

[17] = system: MATIN (Matricaria maritima); assay: greenhouse pre-emergence herbicidal test; details: 2000 g/ha
Outline: as §2

[18] = system: POAAN (Poa annua); assay: greenhouse pre-emergence herbicidal test
Outline: as §2

[19] = system: THLAR (Thlaspi arvense); assay: greenhouse pre-emergence herbicidal test; details: 0.125 kg/ha
Outline: as §2

CC(C)(F)c1nc(N)nc(Nc2c(F)cccc2Cl)n1 [Example 35]
herbicidal activity ([1]; 0.062 kg/ha): very good (a very good herbicidal activity is given at values of at least 85)
herbicidal activity ([2]; 0.062 kg/ha): very good (a very good herbicidal activity is given at values of at least 85)

CC(C)(F)c1nc(N)nc(Nc2c(F)ccc(Cl)c2F)n1 [Example 32]
herbicidal activity ([3]; 0.062 kg/ha): very good (a very good herbicidal activity is given at values of at least 85)
herbicidal activity [4]: very good (a very good herbicidal activity is given at values of at least 85)

CC(C)(C)c1nc(N)nc(Nc2c(F)c(F)c(Br)c(F)c2F)n1 [Example 160]
herbicidal activity ([5]; 125 g/ha, CAPBP): very good (a very good herbicidal activity is given at values of at least 85)
herbicidal activity ([6]; 125 g/ha): very good (a very good herbicidal activity is given at values of at least 85)
herbicidal activity ([7]; 125 g/ha): very good (a very good herbicidal activity is given at values of at least 85)

CCC(C)(Cl)c1nc(N)nc(Nc2c(F)c(F)c(F)c(F)c2F)n1 (centres unmarked) [Example 200]
herbicidal activity ([8]; 1000 g/ha): very good (a very good herbicidal activity is given at values of at least 85)
herbicidal activity ([5]; 1000 g/ha, CACBP): very good (a very good herbicidal activity is given at values of at least 85)
herbicidal activity ([9]; 1000 g/ha): very good (a very good herbicidal activity is given at values of at least 85)

CC(C)(Cl)c1nc(N)nc(Nc2c(F)cccc2F)n1 [Example 78]
herbicidal activity ([10]; 125 g/ha): good (a good herbicidal activity is given at values of at least 70)

CCC(F)(CC)c1nc(N)nc(Nc2c(F)c(F)c(F)c(F)c2F)n1 [Example 49]
herbicidal activity [11]: very good (a very good herbicidal activity is given at values of at least 85)
herbicidal activity ([3]; 0.125 kg/ha): very good (a very good herbicidal activity is given at values of at least 85)

CC(C)(C)C(=O)N(c1nc(N)nc(C(C)(C)C)n1)c1c(F)c(F)c(F)c(F)c1F [Example 283]
herbicidal activity ([12]; 62 g/ha): very good (a very good herbicidal activity is given at values of at least 85)
herbicidal activity [13]: good (a good herbicidal activity is given at values of at least 70)

Nc1nc(Nc2c(F)c(F)c(F)c(F)c2F)nc(C2(F)C(F)(F)C(F)(F)C(F)(F)C(F)(F)C2(F)F)n1 [Example 175]
herbicidal activity ([10]; 494 g/ha): good (a good herbicidal activity is given at values of at least 70)

CC(C)(F)c1nc(N)nc(Nc2ccc([N+](=O)[O-])cc2F)n1 [Example 39]
herbicidal activity ([10]; 0.031 kg/ha): moderate (A moderate herbicidal activity is given at values of at least 60)

CCC(C)(F)c1nc(N)nc(Nc2c(F)c(F)c(F)c(F)c2F)n1 (centres unmarked) [Example 48]
herbicidal activity ([12]; 0.125 kg/ha): very good (a very good herbicidal activity is given at values of at least 85)
herbicidal activity ([2]; 0.125 kg/ha): very good (a very good herbicidal activity is given at values of at least 85)

CC1(c2nc(N)nc(Nc3c(F)c(F)c(F)c(F)c3F)n2)CCCCC1 [Example 88]
herbicidal activity ([5]; 125 g/ha, CAPBP): very good (a very good herbicidal activity is given at values of at least 85)
herbicidal activity ([6]; 125 g/ha): very good (a very good herbicidal activity is given at values of at least 85)
herbicidal activity ([7]; 125 g/ha): very good (a very good herbicidal activity is given at values of at least 85)

COCN(c1nc(N)nc(C(C)(C)F)n1)c1c(F)c(F)c(F)c(F)c1F [Example 305]
herbicidal activity ([14]; 500 g/ha): very good (a very good herbicidal activity is given at values of at least 85)
herbicidal activity ([9]; 500 g/ha): very good (a very good herbicidal activity is given at values of at least 85)
herbicidal activity ([7]; 500 g/ha): very good (a very good herbicidal activity is given at values of at least 85)

CC(C)(F)c1nc(N)nc(Nc2c(F)cccc2F)n1 [Example 24]
herbicidal activity ([15]; 0.125 kg/ha): very good (a very good herbicidal activity is given at values of at least 85)
herbicidal activity ([9]; 0.125 kg/ha): very good (a very good herbicidal activity is given at values of at least 85)

CC(F)c1nc(N)nc(Nc2cc(F)c(F)c(F)c2)n1 (centres unmarked) [Example 16]
herbicidal activity ([1]; 0.125 kg/ha): good (a good herbicidal activity is given at values of at least 70)
herbicidal activity ([2]; 0.125 kg/ha): moderate (A moderate herbicidal activity is given at values of at least 60)

COc1cc(F)c(Nc2nc(N)nc(C(C)(C)F)n2)c(F)c1 [Example 116]
herbicidal activity [16]: good (a good herbicidal activity is given at values of at least 70)
herbicidal activity ([10]; 1000 g/ha): very good (a very good herbicidal activity is given at values of at least 85)

CC(=O)N(c1nc(N)nc(C(C)(C)F)n1)c1c(F)c(F)c(F)c(F)c1F [Example 291]
herbicidal activity [17]: very good (a very good herbicidal activity is given at values of at least 85)
herbicidal activity ([18]; 2000 g/ha): very good (a very good herbicidal activity is given at values of at least 85)

CC(C)(F)c1nc(N)nc(Nc2c(F)c(F)c(Cl)c(F)c2F)n1 [Example 128]
herbicidal activity ([18]; 125 g/ha): very good (a very good herbicidal activity is given at values of at least 85)
herbicidal activity ([14]; 125 g/ha): good (a good herbicidal activity is given at values of at least 70)

CC(O)c1nc(N)nc(Nc2c(F)c(F)c(F)c(F)c2F)n1 (centres unmarked) [Example 69]
herbicidal activity [17]: very good (a very good herbicidal activity is given at values of at least 85)
herbicidal activity ([18]; 2000 g/ha): very good (a very good herbicidal activity is given at values of at least 85)

CCc1nc(N)nc(Nc2c(F)c(F)c(F)c(F)c2F)n1 [Example 4]
herbicidal activity ([5]; 0.125 kg/ha, CAPBP): very good (a very good herbicidal activity is given at values of at least 85)
herbicidal activity ([6]; 0.125 kg/ha): very good (a very good herbicidal activity is given at values of at least 85)

CC(C)(F)c1nc(N)nc(Nc2c(F)cc(Cl)cc2F)n1 [Example 97]
herbicidal activity ([5]; 250 g/ha, CAPBP): good (a good herbicidal activity is given at values of at least 70)
herbicidal activity ([6]; 250 g/ha): good (a good herbicidal activity is given at values of at least 70)

CCC(C)(F)c1nc(N)nc(Nc2c(F)ccc(F)c2F)n1 (centres unmarked) [Example 114]
herbicidal activity ([8]; 32 g/ha): very good (a very good herbicidal activity is given at values of at least 85)
herbicidal activity ([15]; 32 g/ha): very good (a very good herbicidal activity is given at values of at least 85)
herbicidal activity ([9]; 32 g/ha): very good (a very good herbicidal activity is given at values of at least 85)

CC(C)(Cl)c1nc(N)nc(Nc2c(F)c(F)c(F)c(F)c2F)n1 [Example 1, 6-(1-chloro-1-methyl-ethyl)-N4-(2,3,4,5,6-pentafluorophenyl)-1,3,5-triazine-2,4-diamine]
herbicidal activity ([12]; 0.125 kg/ha): very good (a very good herbicidal activity is given at values of at least 85)
herbicidal activity ([2]; 0.125 kg/ha): very good (a very good herbicidal activity is given at values of at least 85)

CC(C)(F)c1nc(N)nc(Nc2cc(C(F)(F)F)cc(C(F)(F)F)c2)n1 [Example 46]
herbicidal activity [19]: very good (a very good herbicidal activity is given at values of at least 85)

Source: patent US9549558B2, “Herbicidal azines” (BASF SE, priority 2012, dated 2017)
